Literature values in US7958848B2, “Method for artificial breeding of farmed sturgeon” (priority 2009, dated 2011).

Test system: goldfish
Conditions: 1-5 mg/kg body weight in combination with pituitary gland

SMILES: O=c1[nH]c2ccccc2n1CCCN1CCC(n2c(=O)[nH]c3cc(Cl)ccc32)CC1 [Domperidone]
- Induction of spawning and gonadal development: induced spawning and gonadal development
